Results as given in patent publication US20100015058A1, “RADIOLABELED BBN-RGD HETERODIMERS FOR CANCER TARGETING” (STANFORD UNIVERSITY, priority 2008, published 2010).

Assays:
[1] = molecular target: T1, integrin αvβ3 (Homo sapiens, UniProt P05106+P06756); test: Competitive cell-binding assay with ^125I-c(RGDyK) on U87MG cells; conditions: FIG. 14A
T1 construct: Experiments were performed on U87MG human glioma cells expressing integrin αvβ3 as previously described; endogenous in cells; host or cells: U87MG human glioblastoma (glioma) cells

[2] = Octanol/water partition coefficient; type: physicochemical; conditions: octanol / PBS pH 7.4, room temperature
Experimental: The mixture was vigorously vortexed for 1 min at room temperature. After centrifugation at 12,500 rpm for 5 min in an Eppendorf microcentrifuge (model 5415R; Brinkman), 200-μL aliquots of both layers were measured using a 7-counter (Packard Instruments). The experiment was performed in triplicate.

[3] = system: DU-145 tumor; type: in vivo, mice; conditions: integrin αvβ3-positive, low GRPR-expressing tumor
Experimental: The PC-3 and DU-145 human prostate carcinoma cell lines were purchased from American Type Culture Collection. PC-3 cells were grown in F-12K nutrient mixture (Kaighn's modification) (Invitrogen Corp.), and DU-145 cells were grown in minimum essential medium (Eagle) mixture supplemented with 10% (v/v) fetal bovine serum (Invitrogen) at 37° C. with 5% CO2. The PC-3 and DU-145 tumor models were generated by subcutaneous injection of 5×10^6 tumor cells into the front flank of male athymic nude mice (Harlan).
No attenuation or scatter correction was applied.

[4] = Small-animal PET of PC-3 tumor-bearing mice; conditions: male, athymic nude, mouse, in vivo, iv, 3.7 MBq, total radioactivity, PC-3 tumor uptake, PET ROI
Experimental: (a) PET scans and image analysis were performed using a micro-PET R4 rodent model scanner (Siemens Medical Solutions) as reported by Li et al., J. Nucl. Med. (2007) 48: 1162-1171 and Wu et al., J Nucl. Med. (2005) 46: 1707-1718, both of which are incorporated herein by reference in their entireties). […] Five-minute static PET images were then acquired at 0.5, 1, and 2 h after injection. The images were reconstructed by a 2-dimensional ordered-subsets expectation maximum (OSEM) algorithm. No attenuation or scatter correction was applied. […] The 5-min static PET scans were then acquired at 1 hr after injection. For each small-animal PET scan, regions of interest (ROIs) were drawn over the tumor, normal tissue, and major organs by using vendor software (ASI Pro 5.2.4.0) on decay-corrected whole-body coronal images. The average radioactivity concentration (accumulation) within a tumor or an organ was obtained from mean pixel values within the multiple ROI volume, which were converted to counts/mL/min using a conversion factor. Assuming a tissue density of 1 g/mL, the ROIs were converted to counts/g/min, and then divided by the administered activity to obtain an imaging ROI-derived percentage injected dose per gram of tissue (% ID/g).
For dynamic PET, 30-min scans (1×30 s, 4×1 min, 1×1.5 min, 4×2 min, 5×3 min; total 15 frames) were started 1 min after injection, and two 5-min static PET images were also acquired at 1 h and 2 h after injection. […] For each small-animal PET scan, regions of interest (ROIs) were drawn over the tumor, normal tissue, and major organs using vendor software ASI Pro 5.2.4.0 on decay-corrected whole-body coronal images. The maximum radioactivity concentrations (accumulation) within a tumor or an organ were obtained from mean pixel values within the multiple ROI volume, and were converted to megabecquerels per milliliter per minute using a conversion factor. These values were then divided by the administered activity to obtain (assuming a tissue density of 1 g/ml) an image ROI-derived percent injected dose per gram (% ID/g).
The images were reconstructed using a 2-dimensional ordered-subsets expectation maximum algorithm without attenuation or scatter correction.
For each small-animal PET scan, regions of interest were drawn over each tumor, over normal tissue, and over major organs using vendor software (ASI Pro, version 5.2.4.0) on decay-corrected whole-body coronal images. The maximum radioactivity concentration (accumulation) within a tumor or an organ was obtained from the mean pixel values within the multiple-region-of-interest volume, which were converted to MBq/mL/min using a conversion factor. Assuming a tissue density of 1 g/mL, the regions of interest were converted to MBq/g/min and then divided by the administered activity to obtain an imaging region-of-interest-derived percentage injected dose (% ID)/g.

[5] = Small-animal PET of MDA-MB-435 tumor-bearing mice; conditions: female, athymic nude, mouse, in vivo, iv, total radioactivity; 30 min p.i., BBN tracer control study, FIG. 44B; read-out: MDA-MB-435 tumor uptake
[6] = system: PC-3 tumor cells; test: Cell uptake assay on PC-3 tumor cells; type: cell-based, human; conditions: PC-3 cells, 37° C., within 30 min of incubation, plateau afterward
Experimental: In the cell uptake experiment, PC-3 cells were seeded into 12-well plates at a density of 5×10^5 cells per well for overnight incubation. Cells were rinsed 3 times with phosphate-buffered saline (PBS), followed by the addition of ^18F-FB-RGD, ^18F-FB-BBN, or ^18F-BBN-RGD to the cultured wells in triplicate (about 2 μCi/well). […] The cell lysate was collected in measurement tubes for counting. The cell uptake was normalized in terms of added radioactivity.
The cell uptake studies were performed as we have previously described with some modifications (Chen et al., Mol Imaging Biol. (2004) […]; Cai et al., (2006) J. Nuc. Med. 47: 1172-1180, incorporated herein by reference in their entireties). Briefly, PC-3 cells were seeded into 12-well plates at a density of 5×10^5 cells per well and incubated (about 18 kBq/well) with ^68Ga-labeled tracers at 37° C. for 15, 30, 60, and 120 min. Tumor cells were then washed three times with chilled PBS and harvested by trypsinization with 0.25% trypsin/0.02% EDTA (Invitrogen). The cell suspensions were collected and measured in a y counter (Packard, Meriden, Conn.). The cell uptake was expressed as the percent added dose (% AD) after decay correction. Experiments were performed twice with triplicate wells. For efflux studies, ^68Ga-labeled tracers (about 18 kBq/well) were first incubated with PC-3 cells in 12-well plates for 1 h at 37° C. to allow internalization. Then cells were washed twice with PBS, and incubated with cell culture medium for 15, 30, and 60 min. After washing three times with PBS, cells were harvested by trypsinization with 0.25% trypsin/0.02% EDTA. The cell suspensions were collected and measured in a γ counter. Experiments were performed twice with triplicate wells. Data are expressed as percent added dose after decay correction.

[7] = molecular target: T2, GRPR (Homo sapiens, UniProt P30550); test: Displacement cell-binding assay with ^125I-[Tyr4]BBN on PC-3 cells; conditions: PC-3 cells, FIG. 14B
T2 construct: Experiments were performed on GRPR-expressing PC-3 cells following our previously described procedure; endogenous in cells; host or cells: PC-3 human prostate carcinoma cells
Experimental: Experiments were performed with triplicate samples.
BBN as the radioligand. […] Experiments were performed twice with triplicate samples.

For `CSCC[C@H](NC(=O)[C@H](CC(C)C)NC(=O)[C@H](Cc1c[nH]cn1)NC(=O)CNC(=O)[C@@H](NC(=O)[C@H](C)NC(=O)[C@H](Cc1c[nH]c2ccccc12)NC(=O)[C@H](CCC(N)=O)NC(=O)CCCCCN)C(C)C)C(N)=O` [Aca-BBN(7-14)], the “binding inhibition of ^125I-c(RGDyK)” value [1] was “did not show significant binding inhibition”.
In the case of `CSCC[C@H](NC(=O)[C@H](CC(C)C)NC(=O)[C@H](Cc1c[nH]cn1)NC(=O)CNC(=O)[C@@H](NC(=O)[C@H](C)NC(=O)[C@H](Cc1c[nH]c2ccccc12)NC(=O)[C@H](CCC(N)=O)NC(=O)CCCCCNC(=O)c1ccc(F)cc1)C(C)C)C(N)=O` [^18F-FB-BBN, reference compound], the logP [2] is reported as 1.49 ± 0.02, the “detection of the DU-145 tumor by PET” value [3] is reported as “unable to detect the DU-145 tumor” and the tissue uptake at 0.5 h ([4]; 30 min after injection of 3.7 MBq) is reported as 0.63 ± 0.16 %ID/g. The tissue uptake at 1 h ([4]; 60 min after injection of 3.7 MBq, no blocking) was 0.44 ± 0.1 %ID/g, the tissue uptake at 2 h ([4]; 120 min after injection of 3.7 MBq) was 0.29 ± 0.08 %ID/g and the tissue uptake at 0.5 h [5] was 0.45 ± 0.11 %ID/g. For the same compound, the cell uptake [6] was “about 7%”.
With `N=C(N)NCCC[C@@H]1NC(=O)[C@H](CCCCN)NC(=O)[C@@H](Cc2ccc(O)cc2)NC(=O)[C@H](CC(=O)O)NC(=O)CNC1=O` [c(RGDyK), cyclo(Arg-Gly-Asp-D-Tyr-Lys), reference compound] the “binding inhibition of ^125I-[Tyr4]BBN with GRPR” value [7] was “did not show significant binding inhibition”.
